Values quoted from earlier work in patent US9555026B2, “Solid dispersion comprising amorphous cilostazol” (OTSUKA PHARMACEUTICAL CO., LTD., priority 2013, dated 2017).

Details: after meal versus fasting

O=C1CCc2cc(OCCCCc3nnnn3C3CCCCC3)ccc2N1 [cilostazol, 6-[4-(1-cyclohexyl-1H-tetrazol-5-yl)butoxy]-3,4-dihydrocarbostyril]
AUC administered after meal, higher than that of fasting: 1.4 times | Cmax administered after meal, higher than that of fasting: 2.3 times
